From patent US9232796B2, “Herbicidal compositions comprising 4-amino-3-chloro-5-fluoro-6-(4-chloro-2-fluoro-3-methoxyphenyl) pyridine-2-carboxylic acid or a derivative thereof and acetyl-CoA carboxylase (ACCase) inhibitors” (DOW AGROSCIENCES LLC, priority 2012, dated 2016)

What was measured:
ECHCG = test: Example VI in-water applied ternary mixtures, greenhouse, transplanted paddy rice weeds; format: in vivo, Echinochloa crus-galli (L.) Beauv.
Procedure, shortened: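 Compound A (SC, acid-equivalent basis) alone or with cyhalofop-R-butyl or metamifop plus a third herbicide, injected into paddy water of greenhouse-grown transplanted rice and weeds at 1st–4th leaf stage (~29/26 °C). Visual injury scored 0–100% after ~3 weeks vs untreated; expected mixture effects by Colby's equation.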

SEBEX = test: Example V post-emergence field trials in direct-seeded rice; format: in vivo, Sesbania exaltata; conditions: foliar, field trial Humphrey, Arkansas, USA
Method: Multiple field trials were conducted under commercial grower field conditions in Tolima, Colombia; Thessaloniki, Greece; Bianze and Copiano, Italy; and Humphrey, Ark., USA. Trials sites were located in commercially grown fields of direct-seeded rice (Oryza sativa) using standard herbicide small plot research methodology. Plots varied from 2 to 3 meter (m)×5 to 8 m (width×length) with 4 replicates per treatment. The rice crop was grown using normal cultural practices for fertilization, seeding, watering, flooding and maintenance to ensure good growth of the crop and the weeds.
All treatments in the field trials were applied using a backpack compressed air/gas sprayer with flat fan nozzles (80° or 110°) calibrated to apply 187 to 300 L/ha spray volume at approximately 200-400 kPa nozzle pressure. Commercially available products of cyhalofop-butyl (Clincher 180EC, Clincher 200EC, and Clincher SF (285 gr ai/L EC)) were mixed in water at appropriate formulated product rates to achieve the desired rates based on a unit area of application (hectare) to achieve the desired rates as shown. […] Visual weed control was scored on a scale of 0 to 100 percent where 0 corresponds to no injury and 100 corresponds to complete kill.
All treatment results, both for the single product and mixtures, are an average of 4 replicates. The trial sites had naturally occurring populations of weeds. The weed spectrum included, but was not limited to, rice flatsedge (Cyperus iria, CYPIR); smallflower umbrellaplant (Cyperus difformis, CYPDI), junglerice (Echinochloa colona, ECHCO), barnyardgrass (Echinochloa crus-galli, ECHCG); multiple Echinochloa species in the same field (ECHSS), grasslike fimbristylis (Fimbristylis miliacea, FIMMI); ricefield bulrush (Schoenoplectus mucronatus, SCPMU) and hemp Sesbania (Sesbania exaltata, SEBEX). All synergistic interactions were significant at the […] level.

COc1c(Cl)ccc(-c2nc(C(=O)OCc3ccccc3)c(Cl)c(N)c2F)c1F [Compound A Benzyl Ester, benzyl ester of 4-amino-3-chloro-5-fluoro-6-(4-chloro-2-fluoro-3-methoxy-phenyl)pyridine-2-carboxylic acid]
Visual Weed Control (%) - 21 DAA ECHCG Obs (ECHCG; 1.09 gae/ha, first set): 0% | Visual Weed Control (%) - 21 DAA ECHCG Obs (ECHCG; 1.09 gae/ha, first sub-table): 0% | Visual Weed Control (%) - 21 DAA ECHCG Obs (ECHCG; 2.19 gae/ha, first set): 7% | Visual Weed Control (%) - 21 DAA ECHCG Obs (ECHCG; 2.19 gae/ha, first sub-table): 7% | Visual Weed Control (%) - 21 DAA ECHCG Obs (ECHCG; 4 gae/ha): 25% | Visual Weed Control (%) - 21 DAA ECHCG Obs (ECHCG; 4 gae/ha, second set): 25% | Visual Weed Control (%) - 21 DAA ECHCG Obs (ECHCG; 4 gae/ha, second sub-table): 25% | Visual Weed Control (%) - 21 DAA ECHCG Obs (ECHCG; 8 gae/ha): 45% | Visual Weed Control (%) - 21 DAA ECHCG Obs (ECHCG; 8 gae/ha, second set): 45% | Visual Weed Control (%) - 21 DAA ECHCG Obs (ECHCG; 8 gae/ha, second sub-table): 45% | Visual Weed Control (%) - 21 DAA ECHCG Obs (ECHCG; 16 gae/ha): 99% | Visual Weed Control (%) - 21 DAA ECHCG Obs (ECHCG; 16 gae/ha, second set): 99% | Visual Weed Control (%) - 21 DAA ECHCG Obs (ECHCG; 16 gae/ha, second sub-table): 99% | Visual Weed Control (%) - 21 DAA ECHCG Obs (ECHCG; Table 67, 4 gae/ha, 21 DAA): 25% | Visual Weed Control (%) - 21 DAA ECHCG Obs (ECHCG; Table 68, 4 gae/ha, 21 DAA): 25% | Visual Weed Control (%) - 21 DAA ECHCG Obs (ECHCG; Table 68, 8 gae/ha, 21 DAA): 45% | Visual Weed Control (%) - 21 DAA ECHCG Obs (ECHCG; Table 68, 16 gae/ha, 21 DAA): 99% | Visual Weed Control (%) - 7 DAA SEBEX Obs (SEBEX; 24 gae/ha): 80% | Visual Weed Control (%) - 7 DAA SEBEX Obs (SEBEX; 32 gae/ha): 78%

CCCCOC(=O)[C@@H](C)Oc1ccc(Oc2ccc(C#N)cc2F)cc1 [Cyhalofop-butyl, butyl(2R)-2-[4-(4-cyano-2-fluorophenoxy)phenoxy]propanoate, reference compound]
Visual Weed Control (%) - 21 DAA ECHCG Obs (ECHCG; 22.5 gai/ha, first set): 0% | Visual Weed Control (%) - 21 DAA ECHCG Obs (ECHCG; 22.5 gai/ha, first sub-table): 0% | Visual Weed Control (%) - 21 DAA ECHCG Obs (ECHCG; 45 gai/ha): 30% | Visual Weed Control (%) - 21 DAA ECHCG Obs (ECHCG; 45 gai/ha, first set): 3% | Visual Weed Control (%) - 21 DAA ECHCG Obs (ECHCG; 45 gai/ha, first sub-table): 3% | Visual Weed Control (%) - 21 DAA ECHCG Obs (ECHCG; 45 gai/ha, second set): 30% | Visual Weed Control (%) - 21 DAA ECHCG Obs (ECHCG; 45 gai/ha, second sub-table): 30% | Visual Weed Control (%) - 21 DAA ECHCG Obs (ECHCG; Table 67, 45 gai/ha, 21 DAA): 30% | Visual Weed Control (%) - 21 DAA ECHCG Obs (ECHCG; Table 68, 45 gai/ha, 21 DAA): 30% | Visual Weed Control (%) - 7 DAA SEBEX Obs (SEBEX; 280 gai/ha): 0%
